Patent publication US11691992B2 (Anacor Pharmaceuticals, Inc., priority 2017, dated 2023)

Key:
Format in all cases: cell-based
[1] = system: bloodstream-form trypanosome T. brucei brucei 427 strain; assay: Trypanosoma brucei brucei high-throughput screening assay (resazurin); conditions: 72 h, read-out: IC50: I Org. Growth T. brucei brucei SBRI 427, 3 d [uM]
Protocol: Example 105. Trypanosoma brucei brucei High-Throughput Screening Assay Procedure
All experiments were conducted with the bloodstream-form trypanosome T. brucei brucei 427 strain obtained from Seattle Biomedical Research Institute (Seattle, Wash.). Parasites were cultured in T-25 vented cap flasks and kept in humidified incubators at 37° C. and 5% CO2. The parasite culture media was complete HMI-9 medium containing 10% FBS, 10% Serum Plus medium and penicillin/streptomycin. To ensure log growth phase, trypanosomes were sub-cultured at appropriate dilutions every 2-3 days. Approximately 50 microliters of log phase cultures were diluted 1:10 in HMI-9 and 10 μL of the diluted culture was removed and counted using a hemocytometer to determine parasite concentration. Parasites were diluted by addition of an appropriate volume of HMI-9 to achieve a final parasite concentration of 2×10^5/mL. Compounds of the invention to be tested were serially diluted in DMSO and 0.5 μL added to 49.5 μL HMI-9 in triplicate 96-well plates using a Biomek NX liquid handler. Parasites from the diluted stock were added to each well (50 μL) using a Multidrop 384 dispenser to give a final concentration of 1.0×10^5/ml parasites in […] for DMSO. Trypanosomes were incubated with compounds for 72 hrs at 37° C. with 5% CO2. Resazurin (20 μL of 12.5 mg/ml stock) from Sigma-Aldrich was added to each well and plates were incubated for an additional 2-4 hrs. Assay plates were read using an EnVision plate reader at an excitation wavelength of 544 nm and emission of 590 nm. Triplicate data points were averaged to generate sigmoidal dose response curve and determine IC50 values using XLfit curve fitting software from IDBS (Guildford, UK).

[2] = system: luciferase-expressing L. major parasites developing intracellularly inside RAW 264.7 macrophages; assay: Leishmania major intracellular amastigote assay in RAW 264.7 macrophages (luciferase); conditions: RAW264.7, 96 hours, read-out: IC50: I Org. intracellular amastigote Growth L. major, 4 d
In short: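 RAW 264.7 macrophages infected overnight with luciferase-expressing L. major promastigotes, washed of extracellular parasites, then exposed to two-fold compound dilutions (final 0.5-10,000 ng/ml) for 96 h at 37° C, 5% CO2. Luciferin luminescence after 30 min; IC50 by sigmoidal variable-slope regression.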

[3] = system: TdTomato-modified T. cruzi (CL strain) in Vero cells; assay: In vitro IC50 measurement of T. cruzi amastigote killing using TdTomato-modified T. cruzi (CL strain); conditions: Trypanosoma cruzi, 72 h, fluorescence, read-out: IC50: I Org. amastigote Growth T. cruzi CL TdTomato, 3 d
In short: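 Vero cells were infected with tdTomato-expressing CL-strain parasites and dosed at 5 uM–5 nM. Fluorescence (ex 544/em 612 nm) was read at day 0 and again after 72 h at 37 °C, with day 0 values subtracted. IC50 and IC90 came from nonlinear regression.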

[4] = system: T. cruzi Tulahuen strain C2C4 containing the β-galactosidase (Lac Z) gene in rat skeletal myoblasts (L-6 cells); assay: Trypanosoma cruzi C2C4 screening assay; conditions: L6, 96 h, read-out: SCYNEXIS IC50: I Org. Growth T. cruzi Tulahuen C2C4 Lac Z, 4 d [uM]
Protocol: Example 113: Trypanosoma cruzi C2C4 Screening Assay Procedure
Rat skeletal myoblasts (L-6 cells) were seeded in 96-well microtiter plates at 2×10^3 cells/well in 100 μL RPMI 1640 medium with 10% FBS and 2 mM L-glutamine. After 24 h the medium was removed and replaced by 100 μL per well containing 5×10^3 trypomastigote forms of T. cruzi Tulahuen strain C2C4 containing the β-galactosidase (Lac Z) gene (Buckner, et al., Antimicrobial Agents and Chemotherapy, 40: 2592-2597 (1996)). After 48 h the medium was removed from the wells and replaced by 100 μL fresh medium with or without a serial drug dilution of the seven 3-fold dilution steps covering a range from 90 to 0.123 μg/mL. After 96 h of incubation the plates were inspected under an inverted microscope to assure growth of the controls and sterility. The substrate (50 μL) chlorophenol red-β-D-galactopyranoside (CPRG, Roche Diagnostics, Ltd) in 0.25% Nonidet P-40/PBS was added to all wells and a color reaction developed within 2-6 h which was read photometrically at 540 nm. Data were transferred into the graphic program Softmax Pro (Molecular Devices), which calculated IC50 values.

[5] = system: IL3000 T. congolense (drug sensitive) strain; assay: In vitro Alamar Blue 72 h drug sensitivity assay for T. congolense; conditions: Trypanosoma congolense; bloodstream form, 69 h + 3 h resazurin, 34° C.; classes A-C; read-out: IC50: I Org. Growth T. congolense IL-3000, 3 d
In short: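 Bloodstream-form trypanosomes in HMI medium with 20% bovine serum, exposed to compound for 69 h at 34 °C, 5% CO2, then resazurin for 3 h more. Fluorescence read at 536/588 nm. IC50 from 11-point sigmoidal dose-response curves, at least three independent runs.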

[6] = system: STIB719/ILRAD560 T. vivax (drug sensitive) strain; assay: Ex vivo Alamar Blue 48 h drug sensitivity assay for T. vivax; conditions: Trypanosoma vivax, ex vivo bloodstream forms from mouse, 45 hrs + 3 hrs resazurin, read-out: IC50: I Hypoxanthine Incorporation T. vivax STIB 719/ILRA D 560, 2 d
Protocol: Example 109. Ex Vivo Alamar Blue 48 h Drug Sensitivity Assay for T. vivax
[…] Test compounds were prepared as 10 mg/mL DMSO stocks for each assay run. Compounds were assayed in at least three separate, independent test runs and an 11-point dilution curve was used to determine the IC50 values. Bloodstream form trypanosomes were propagated and harvested from a highly parasitemic mouse (via cardiac puncture) and were incubated with test compounds for 45 hrs at 37° C. in a humidified atmosphere containing 5% CO2, supported in HMI media containing 20% bovine serum. […] Plates were then read using a fluorescent plate reader (Spectramax, Gemini XS, Bucher Biotec, Basel, Switzerland) using an excitation wavelength of 536 nm and an emission wavelength of 588 nm. Data points were averaged to generate sigmoidal dose-response curves and IC50 values were determined using Softmax Pro 5.2 software.

[7] = system: bloodstream forms of T. b. rhodesiense STIB 900; assay: T. brucei rhodesiense STIB 900 growth inhibition assay; conditions: Trypanosoma brucei; bloodstream forms, 72 h, Alamar Blue; protocol of Example 110; read-out: IC50: I Org. Growth T. brucei rhodesiense STIB 900, 3 d
In short: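 Bloodstream-form STIB 900 (10^4/well) were cultured in supplemented MEM with 15% horse serum and compound (90 to 0.123 μg/ml, 3-fold steps) for 72 h at 37 °C, 5% CO2. Viability was read by Alamar Blue fluorescence (ex 536/em 588 nm) after a further 2-4 h.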

[8] = system: L. infantum MHOM/MA(BE)/67 amastigotes in primary peritoneal mouse macrophages; assay: Leishmania infantum intracellular amastigote assay in mouse macrophages; conditions: Macrophage, 120 h, amastigotes in primary peritoneal mouse macrophages, 5 d, Giemsa staining, read-out: Inhibition of Organism Growth in Leishmania infantum MHOM/MA/BE/67, 5 d
In short: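 Amastigotes harvested from infected hamster spleen infected primary peritoneal mouse macrophages (5×10^5 amastigotes/well, 2 h, 37 °C). Compounds then present 5 d at 37 °C, 5% CO2. Parasite burden counted by microscopy after Giemsa staining, as % of untreated controls; IC50 from sigmoidal variable-slope fit.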

[9] = system: Trypanosoma brucei rhodesiense STIB 900 strain; assay: Trypanosoma brucei rhodesiense STIB 900 screening assay; conditions: STIB 900 bloodstream forms, 72 h, Alamar Blue, protocol of Example 114, read-out: Swiss TPH T b rhodesiense IC50
In short: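 Bloodstream forms of T. b. rhodesiense STIB 900 (10^4 per well) cultured with seven 3-fold drug dilutions (90 to 0.123 μg/mL) in MEM with 15% horse serum, 72 h, 37 °C, 5% CO2. Alamar Blue added for 2-4 h more; fluorescence read at ex 536/em 588 nm for IC50.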

Q: `O=C(Nc1ccc2c(c1)B(O)OC2)c1cn(-c2ccccc2)nn1` [Example 66, N-(1-hydroxy-1,3-dihydrobenzo[c][1,2]oxaborol-6-yl)-1-phenyl-1H-1,2,3-triazole-4-carboxamide] was tested. Which IC50 [1] did it give?
A: 0.075 to 0.15 µM

Q: What about the IC50 [2] of the same compound?
A: ≤ 1000 nM

Q: And the IC50 [3]?
A: < 600 nM

Q: What about the IC50 [4] of the same compound?
A: 0.06 to 0.1 µM

Q: With `Cc1c(C(=O)Nc2ccc3c(c2)B(O)OC3(C)C)nnn1-c1ccccn1` [Example 85, N-(1-hydroxy-3,3-dimethyl-1,3-dihydrobenzo[c][1,2]oxaborol-6-yl)-5-methyl-1-(pyridin-2-yl)-1H-1,2,3-triazole-4-carboxamide] as the compound, how does the IC50 [5] read?
A: 310 to 100000 nM

Q: What about the IC50 [6] of the same compound?
A: 510 to 10000 nM

Q: And the IC50 [7]?
A: 310 to 10000 nM

Q: What about the IC50 [8] of the same compound?
A: 20000 to 100000 nM

Q: What about the IC50 [9] of the same compound?
A: 260 to 2000 nM

Q: For `Cc1c(C(=O)Nc2ccc3c(c2)B(O)OC3)nnn1-c1ccc(F)cc1` [Example 86, 1-(4-fluorophenyl)-N-(1-hydroxy-1,3-dihydrobenzo[c][1,2]oxaborol-6-yl)-5-methyl-1H-1,2,3-triazole-4-carboxamide], which IC50 [1] is on record?
A: 0.075 to 0.15 µM

Q: What about the IC50 [3] of the same compound?
A: 600 to 1000 nM

Q: What about the IC50 [4] of the same compound?
A: 0.11 to 1 µM

Q: For `Cc1c(C(=O)Nc2ccc3c(c2)B(O)OC3)nnn1-c1cccc(C(F)(F)F)c1` [Example 87, N-(1-hydroxy-1,3-dihydrobenzo[c][1,2]oxaborol-6-yl)-5-methyl-1-(3-(trifluoromethyl)phenyl)-1H-1,2,3-triazole-4-carboxamide], which IC50 [5] is on record?
A: 100 to 300 nM

Q: And the IC50 [6]?
A: 510 to 10000 nM

Q: What about the IC50 [7] of the same compound?
A: 100 to 300 nM

Q: What about the IC50 [8] of the same compound?
A: 3000 to 19900 nM

Q: What about the IC50 [9] of the same compound?
A: 100 to 250 nM

Q: For `COc1ccccc1-n1nnc(C(=O)Nc2ccc3c(c2)B(O)OC3)c1C` [Example 88, N-(1-hydroxy-1,3-dihydrobenzo[c][1,2]oxaborol-6-yl)-1-(2-methoxyphenyl)-5-methyl-1H-1,2,3-triazole-4-carboxamide], which IC50 [5] is on record?
A: < 100 nM

Q: What about the IC50 [6] of the same compound?
A: 201 to 500 nM

Q: And the IC50 [7]?
A: 100 to 300 nM

Q: And the IC50 [8]?
A: < 3000 nM

Q: What about the IC50 [9] of the same compound?
A: 100 to 250 nM

Q: Which results are given for `Cc1c(C(=O)Nc2ccc3c(c2)B(O)OC3(C)C)nnn1-c1ccccc1` [Example 92, N-(1-hydroxy-3,3-dimethyl-1,3-dihydrobenzo[c][1,2]oxaborol-6-yl)-5-methyl-1-phenyl-1H-1,2,3-triazole-4-carboxamide]?
A: IC50 [5]: 310 to 100000 nM; IC50 [6]: 510 to 10000 nM; IC50 [7]: 310 to 10000 nM; IC50 [8]: 20000 to 100000 nM; IC50 [9]: 260 to 2000 nM
